Test results published in US10383848B2, “Indole-based therapeutics” (Creighton University, priority 2016, dated 2019).
In brackets after ≈: the same amount, converted by molar mass.

What was measured:
Format in all cases: cell-based
M. abscessus ATCC 19977 = assay: MIC, resazurin microtiter assay; settings: Mycobacteroides abscessus, ATCC19977; Mueller Hinton II; read-out: MIC M. abscessus ATCC 19977
M. abscessus DCI #21 = assay: MIC, resazurin microtiter assay; settings: Mycobacteroides abscessus; Mueller Hinton II; read-out: MIC M. abscessus DCI #21
[1] = test system: M. massiliense CIP 108297; assay: MIC, resazurin microtiter assay; settings: Mycobacteroides abscessus, CIP108297, Mueller Hinton II; read-out: MIC M. massiliense CIP 108297
M. massiliense CRM 0019 = assay: MIC, resazurin microtiter assay; settings: Mycobacteroides abscessus, CRM0019, Mueller Hinton II; read-out: MIC M. massiliense CRM 0019
M. bolletii ATCC 14472 = assay: MIC, resazurin microtiter assay; settings: Mycobacteroides abscessus, ATCC14472, Mueller Hinton II; read-out: MIC M. bolletii ATCC 14472
M. chelonae ATCC 35752 = assay: MIC, resazurin microtiter assay; settings: Mycobacteroides chelonae, ATCC35752, Mueller Hinton II; read-out: MIC M. chelonae ATCC 35752
M. smegmatis mc^2155 = assay: MIC, resazurin microtiter assay; settings: Mycolicibacterium smegmatis, MC^2155, 7H9-ADC-0.05% Tween 80; read-out: MIC M. smeg. mc^2155
M. avium 104 = assay: MIC, resazurin microtiter assay; settings: Mycobacterium avium, 104; Mueller Hinton II; read-out: MIC M. avium 104
M. intracellulare 1956 = assay: MIC, resazurin microtiter assay; settings: Mueller Hinton II; read-out: MIC M. avium Intracellulare 1956
M. xenopi WT = assay: MIC, resazurin microtiter assay; settings: Mycobacterium xenopi, Mueller Hinton II; read-out: MIC M. xenopi WT
[2] = test system: M. tuberculosis H37Rv mc^26206; assay: microbe, parasite or virus in culture; settings: Mycobacterium tuberculosis, H37RV; read-out: MIC M. tb H37 Rv (mc2-6206)

| SMILES | MIC (M. abscessus ATCC 19977) [µg/mL] | MIC (M. abscessus DCI #21) [µg/mL] | MIC [1] [µg/mL] | MIC (M. massiliense CRM 0019) [µg/mL] | MIC (M. bolletii ATCC 14472) [µg/mL] | MIC (M. chelonae ATCC 35752) [µg/mL] | MIC (M. smegmatis mc^2155) [µg/mL] | MIC (M. avium 104) [µg/mL] | MIC (M. intracellulare 1956) [µg/mL] | MIC (M. xenopi WT) [µg/mL] | MIC [2] [µg/mL] |
| --- | --- | --- | --- | --- | --- | --- | --- | --- | --- | --- | --- |
| CCC12CC3CC(C1)CC(NC(=O)c1cc4c(C)cc(C)cc4[nH]1)(C3)C2 [Compound 21, N-(3-ethyl-1-adamantyl)-4,6-dimethyl-1H-indole-2-carboxamide] | > 32 | > 32 | > 32 | > 32 | > 32 | > 32 | > 20 | > 32 | > 32 | > 32 | – |
| Cc1cc(C)c2cc(C(=O)NC3CCCC3)[nH]c2c1 [Compound 28, N-cyclopentyl-4,6-dimethyl-1H-indole-2-carboxamide] | 4 (≈ 15.6 µM) | 4 (≈ 15.6 µM) | 8 (≈ 31.2 µM) | 8 (≈ 31.2 µM) | 2 (≈ 7.8 µM) | 2 (≈ 7.8 µM) | 5 (≈ 19.5 µM) | > 32 | > 32 | 8 to 16 (≈ 31.2 to 62.4 µM) | 2.5 (≈ 9.75 µM) |
| Cc1cc(C)c2cc(C(=O)NC34CC5CC(CC(C5)C3)C4)[nH]c2c1 [Compound 20, N-1-adamantyl-4,6-dimethyl-1H-indole-2-carboxamide] | > 32 | 32 (≈ 99.2 µM) | > 32 | > 32 | > 32 | > 32 | 1.25 to 2.5 (≈ 3.88 to 7.75 µM) | > 32 | > 32 | > 32 | – |
| O=C(NC1CCCCCCC1)c1cc2ccccc2[nH]1 [Compound 10, N-cyclooctyl-1H-indole-2-carboxamide] | > 32 | > 32 | > 32 | 32 (≈ 118 µM) | 32 (≈ 118 µM) | > 32 | 25 (≈ 92.5 µM) | > 32 | > 32 | 2 (≈ 7.4 µM) | 0.39 (≈ 1.44 µM) |
| CC1CCC(NC(=O)c2cc3ccccc3[nH]2)CC1 (stereo not shown) [Compound 14, N-((1s,4s)-4-methylcyclohexyl)-1H-indole-2-carboxamide] | > 32 | > 32 | > 32 | > 32 | > 32 | > 32 | > 25 | – | – | – | > 10 |
| Cc1cc(C)c2cc(C(=O)NC(C)C34CC5CC(CC(C5)C3)C4)[nH]c2c1 (stereo not shown) [Compound 22, N-(1-(1-adamantyl)ethyl)-4,6-dimethyl-1H-indole-2-carboxamide] | 16 (≈ 45.6 µM) | > 32 | 8 (≈ 22.8 µM) | 8 (≈ 22.8 µM) | 16 (≈ 45.6 µM) | 16 (≈ 45.6 µM) | > 20 | > 32 | > 32 | > 32 | – |
| O=C(NC1CCCC1)c1cc2ccccc2[nH]1 [Compound 13, N-cyclopentyl-1H-indole-2-carboxamide] | > 32 | > 32 | > 32 | > 32 | > 32 | > 32 | > 25 | – | – | – | > 10 |
| Cc1cc(C)c2cc(C(=O)NC3C4CC5CC(C4)CC3C5)[nH]c2c1 (stereo not shown) [Compound 24, N-2-adamantyl-4,6-dimethyl-1H-indole-2-carboxamide] | > 32 | > 32 | > 32 | > 32 | > 32 | > 32 | > 20 | > 32 | > 32 | 0.5 to 1 (≈ 1.55 to 3.1 µM) | – |
| O=C(NC1CCCCC1)c1cc2ccccc2[nH]1 [Compound 12, N-cyclohexyl-1H-indole-2-carboxamide] | > 32 | > 32 | > 32 | > 32 | > 32 | > 32 | > 25 | – | – | – | > 10 |
| Cc1cc(C)c2cc(C(=O)NC3CCCCC3)[nH]c2c1 [Compound 27, N-cyclohexyl-4,6-dimethyl-1H-indole-2-carboxamide] | 0.5 (≈ 1.85 µM) | 0.25 (≈ 0.925 µM) | 0.25 (≈ 0.925 µM) | 0.25 (≈ 0.925 µM) | 0.25 (≈ 0.925 µM) | 0.25 (≈ 0.925 µM) | 2.5 (≈ 9.25 µM) | > 32 | > 32 | 1 to 2 (≈ 3.7 to 7.4 µM) | – |
| CCCCCCCCNC(=O)c1cc2ccccc2[nH]1 [Compound 18, N-octyl-1H-indole-2-carboxamide] | > 32 | > 32 | > 32 | > 32 | > 32 | > 32 | > 25 | – | – | – | > 10 |
| Cc1cc(C)c2cc(C(=O)NCc3cccc(Cl)c3)[nH]c2c1 [Compound 34, N-(3-chlorobenzyl)-4,6-dimethyl-1H-indole-2-carboxamide] | > 32 | > 32 | > 32 | > 32 | > 32 | > 32 | > 20 | – | – | – | > 5 |
| O=C(NC1C2CC3CC(C2)CC1C3)c1cc2ccccc2[nH]1 (stereo not shown) [Compound 9, N-(2-adamantyl)-1H-indole-2-carboxamide] | > 32 | > 32 | > 32 | 32 (≈ 109 µM) | 32 (≈ 109 µM) | > 32 | > 25 | > 32 | > 32 | 2 (≈ 6.79 µM) | 0.39 (≈ 1.32 µM) |
| CCCCCCCNC(=O)c1cc2ccccc2[nH]1 [Compound 17, N-heptyl-1H-indole-2-carboxamide] | > 32 | > 32 | > 32 | > 32 | > 32 | > 32 | > 25 | – | – | – | > 10 |
| CCCCCCCCNC(=O)c1cc2c(C)cc(C)cc2[nH]1 [Compound 33, N-octyl-4,6-dimethyl-1H-indole-2-carboxamide] | > 32 | > 32 | > 32 | > 32 | > 32 | > 32 | 2.5 to 5 (≈ 8.32 to 16.6 µM) | > 32 | > 32 | > 32 | > 20 |
| O=C(NC1CCCCCC1)c1cc2ccccc2[nH]1 [Compound 11, N-cycloheptyl-1H-indole-2-carboxamide] | > 32 | > 32 | > 32 | > 32 | > 32 | > 32 | > 20 | – | – | – | > 5 |
| Cc1cc(C)c2cc(C(=O)NC3CCC(C)CC3)[nH]c2c1 (stereo not shown) [Compound 29, 4,6-dimethyl-N-((1s,4s)-4-methylcyclohexyl)-1H-indole-2-carboxamide] | ≤ 0.06 | ≤ 0.06 | ≤ 0.06 | ≤ 0.06 | ≤ 0.06 | ≤ 0.06 | > 20 | > 32 | > 32 | 0.25 to 1 (≈ 0.879 to 3.52 µM) | – |
| O=C(NCc1cccc(Cl)c1)c1cc2ccccc2[nH]1 [Compound 19, N-(3-chlorobenzyl)-1H-indole-2-carboxamide] | > 32 | > 32 | > 32 | > 32 | > 32 | > 32 | > 20 | – | – | – | > 5 |
| Cc1cc(C)c2cc(C(=O)NCC34CC5CC(CC(C5)C3)C4)[nH]c2c1 [Compound 23, N-(1-(1-adamantyl)methyl)-4,6-dimethyl-1H-indole-2-carboxamide] | > 32 | > 32 | > 32 | > 32 | > 32 | > 32 | > 20 | > 32 | > 32 | 1 (≈ 2.97 µM) | – |
